This is an account of results in patent US8524291B2, “Anti-obesity product and its method of preparation” (Chongquing Institute of Ecological Materia Medica Co. Ltd., priority 2006, dated 2013).

The test can be described thus: 40-day study in ob/ob mice on high fat diet: body weight and fat, metabolic parameters, liver indicators. Conditions: day 43. Type of test: in vivo, C57 black ob/ob mice. As to the method:
Forty C57 black ob/ob mice were allocated to five groups of eight for study over 40 days as follows:
High fat diet—no treatment;
High fat diet—100 mg/kg/OD PYN22;
High fat diet—300 mg/kg/OD PYN22; • High fat diet—3 mg/kg/OD Rosiglitazone (positive control).
Mice were weighed twice per week and food intake measured daily throughout the study. Any laxative effects of treatments were visually examined and recorded.
Oral glucose tolerance tests were conducted on Day 7, Day 21 and Day 35.
Energy expenditure was measured at Day 14.
Fasting plasma insulin and lipids were measured on Days 7, 21 and 35.
Three days before sacrifice, 100 ul blood samples were taken from all animals to provide plasma glucose, insulin, free fatty acid, triglycerides, cholesterol and HDL-cholesterol.
At sacrifice, body mass and fat mass were calculated; the same parameters were also calculated for liver, heart and white adipose tissues.

Regarding `CN(CCOc1ccc(CC2SC(=O)NC2=O)cc1)c1ccccn1` (centres unmarked) [Rosiglitazone], the “actual liver weight (FIG. 11C)” value is “no effect” and the “relative (% body weight) liver weight (FIG. 11D)” value is “no effect”.
